Results: patent publication US12268694B2, “Combination pharmaceutical agents as RSV inhibitors” (Enanta Pharmaceuticals, Inc., priority 2017, dated 2025)

System: genotype A, "Long" strain RSV
Assay: RSV-A assay: CPE protection in HEp-2 cells, ATPlite readout
Type: cell-based, human respiratory syncytial virus
Conditions: HEp-2 cells, RSV-A Long strain, ATPlite readout; read-out: Human RSV-A (“Long” strain) EC50
How it was run: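 EC50 derives from ATPlite luminescence after 5-day culture of RSV Long-infected (MOI 0.1) HEp-2 cells, seeded 8,000/well, exposed to duplicate 2-fold compound series. CC50 comes from an identical plate receiving medium instead of virus.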

Row | SMILES | EC50 [nM]
1 | O=C1Nc2ccccc2C(c2ccccc2)=N[C@@H]1Nc1nnc(-c2ncc(C(F)(F)F)cc2N[C@@H]2CC[C@@H]2O)o1 [Example 418] | > 800
2 | O=C1Nc2ccccc2C(c2ccccc2)=N[C@H]1Nc1nnc(-c2cn(CC(F)(F)F)nc2N2CCOCC2)o1 [Example 488] | < 400
3 | O=C1Nc2ccccc2C(c2ccccc2)=N[C@@H]1Nc1nnc(-c2nc(C(F)(F)F)sc2N2CCO[C@@H]3C[C@@H]32)o1 [Example 484] | < 400
4 | O=C1Nc2ccccc2C(c2ccccc2)=N[C@@H]1Nc1nnc(-c2ncc(C(F)(F)F)cc2N[C@H]2CC[C@H]2O)o1 [Example 417] | > 800
5 | O=C1Nc2ccccc2C(c2ccccc2)=NC1Nc1nnc(-c2c(F)cc(F)cc2N2CCOCC2)o1 (stereo not shown) [Example 170] | > 800

Same assay, conditions: human respiratory syncytial virus, HEp-2, read-out: Human RSV-A (“Long” strain) EC50

Row | SMILES | EC50 [nM]
6 | Cc1nc(-c2nnc(NC3N=C(c4ccccc4)c4ccccc4NC3=O)o2)ccc1F (stereo not shown) [Example 110] | > 800
7 | CC1(c2nnc(NC3N=C(c4ccccc4)c4ccccc4NC3=O)o2)CC1 (stereo not shown) [Example 195] | > 800
8 | O=C1Nc2ccccc2C(c2ccccc2)=NC1Nc1ccc(-c2ccccc2N2CCOCC2)nn1 (stereo not shown) [Example 378] | > 800
9 | O=C1Nc2ccccc2C(c2ccccc2)=NC1Nc1nnc(-c2cccnc2N2CCCC(F)(F)C2)o1 (stereo not shown) [Example 246] | > 800
10 | O=C1Nc2ccccc2C(c2ccccc2)=NC1Nc1nnc(-c2ncc(N3CCOCC3)cc2Cl)o1 (stereo not shown) [Example 135] | > 800
11 | COCCn1cc(-c2nnc(N[C@H]3N=C(c4ccccc4)c4ccccc4NC3=O)o2)c(N2CCOCC2)n1 [Example 402] | < 400
12 | Cc1nc2ccc(-c3nnc(NC4N=C(c5ccccc5)c5ccccc5NC4=O)o3)cc2s1 (stereo not shown) [Example 187] | 400 to 800
13 | O=C1Nc2ccccc2C(c2ccccc2)=NC1Nc1ncc(-c2ccccc2)cn1 (stereo not shown) [Example 371] | > 800
14 | O=C1Nc2ccccc2C(c2ccccc2)=N[C@@H]1Nc1nnc(-c2ccc(F)cc2N2CC3CCC(C2)O3)o1 [Example 288] | 400 to 800
15 | CNc1cc(C(F)(F)F)cnc1-c1nnc(N[C@H]2N=C(c3ccccc3)c3ccccc3NC2=O)o1 [Example 307] | > 800
16 | O=C1Nc2ccccc2C(c2ccccc2)=N[C@@H]1Nc1nnc(-c2cnc(N3CC4CCC(C3)O4)nc2)o1 [Example 166] | > 800
17 | O=C1Nc2ccccc2C(c2ccccc2)=N[C@@H]1Nc1nnc(-c2ncc(C(F)(F)F)cc2C2CC2)o1 [Example 293] | > 800
18 | N#CC1CN(c2ncccc2-c2nnc(NC3N=C(c4ccccc4)c4ccccc4NC3=O)o2)C1 (stereo not shown) [Example 274] | > 800
19 | CN(CC(C)(C)O)c1cc(C(F)(F)F)cnc1-c1nnc(N[C@H]2N=C(c3ccccc3)c3ccccc3NC2=O)o1 [Example 308] | > 800
20 | O=C1Nc2ccccc2C(c2ccccc2)=N[C@@H]1Nc1nnc(-c2ccccc2N2CCOCC2)o1 [Example 125a] | < 400
21 | O=C1Nc2ccccc2C(c2ccccc2)=N[C@@H]1Nc1nnc(-c2ncc(C(F)(F)F)cc2N[C@@H]2CCOC2)o1 [Example 464] | < 400
22 | O=C1Nc2ccccc2C(c2ccccc2)=NC1Nc1nnc(-c2cccnc2N2CC3CCC(C2)O3)o1 (stereo not shown) [Example 266] | 400 to 800
23 | O=C1Nc2ccccc2C(c2ccccc2)=NC1Nc1nnc([C@H]2CCCO2)o1 (stereo partly shown) [Example 198] | > 800
24 | O=C1Nc2ccccc2C(c2ccccc2)=NC1Nc1nnc(-c2cnccc2N2CCCCC2)o1 (stereo not shown) [Example 134] | > 800
25 | CS(=O)(=O)c1ccc(-c2nnc(NC3N=C(c4ccccc4)c4ccccc4NC3=O)o2)nc1 (stereo not shown) [Example 107] | > 800
26 | N#Cc1ccc(-c2nnc(N[C@H]3N=C(c4ccccc4)c4ccccc4NC3=O)o2)c(N2CCOCC2)c1 [Example 157] | < 400
27 | CN1CCC(N2CCC[C@H]2c2nnc(NC3N=C(c4ccccc4)c4ccccc4NC3=O)o2)CC1 (stereo partly shown) [Example 228] | > 800
28 | O=C1Nc2ccccc2C(c2ccccc2)=NC1Nc1ncc(-c2ccccc2)s1 (stereo not shown) [Example 85] | > 800
29 | O=C1Nc2ccccc2C(c2ccccc2)=N[C@@H]1Nc1nnc(-c2oc3cccc(F)c3c2N2CCOCC2)o1 [Example 477] | < 400

Row | SMILES | EC50 [nM]
30 | COC(C)(C)CNc1cc(C(F)(F)F)cnc1-c1nnc(N[C@H]2N=C(c3ccccc3)c3ccccc3NC2=O)o1 [Example 416] | > 800
31 | COC1C2CN(c3cc(C(F)(F)F)cnc3-c3nnc(N[C@H]4N=C(c5ccccc5)c5ccccc5NC4=O)o3)CC21 (stereo partly shown) [Example 439] | > 800
32 | CN1CCN(c2cc(C(F)(F)F)cnc2-c2nnc(N[C@H]3N=C(c4ccccc4)c4ccccc4NC3=O)o2)CC1 [Example 327] | 400 to 800
33 | N#Cc1cc(N2CCOCC2)c(-c2nnc(N[C@H]3N=C(c4ccccc4)c4ccccc4NC3=O)o2)s1 [Example 323] | < 400
34 | O=C1Nc2ccccc2C(c2ccccc2)=N[C@@H]1Nc1nnc(-c2ncc(C(F)(F)F)cc2N2CCOC3CC32)o1 (mixture of isomers) [Example 466] | < 400
35 | O=C1Nc2ccccc2C(c2ccccc2)=NC1Nc1nnc(-c2cccnc2N2CCC(F)CC2)o1 (stereo not shown) [Example 256] | > 800
36 | CS(=O)(=O)c1ccc(-c2nnc(NC3N=C(c4ccccc4)c4ccccc4NC3=O)o2)c(N2CCOCC2)c1 (stereo not shown) [Example 121] | > 800
37 | CC1(Nc2cc(C(F)(F)F)cnc2-c2nnc(N[C@H]3N=C(c4ccccc4)c4ccccc4NC3=O)o2)CCOC1 (stereo partly shown) [Example 424] | > 800
38 | O=C1Nc2ccccc2C(c2ccccc2)=N[C@@H]1Nc1nnc(-c2cnc(C3CC3)nc2N2CCOCC2)o1 [Example 167] | < 400
39 | O=C1Nc2ccccc2C(c2ccccc2)=N[C@H]1Nc1nnc(-c2ccc(N3CCOCC3)cc2F)o1 [Example 126b] | > 800
40 | O=C1Nc2ccccc2C(c2ccccc2)=N[C@@H]1Nc1nnc(-c2nc(C(F)(F)C(F)(F)F)sc2N2CCOCC2)o1 [Example 454] | < 400
41 | C[C@@H]1COCCN1c1cc(C(F)(F)F)cnc1-c1nnc(N[C@H]2N=C(c3ccccc3)c3ccccc3NC2=O)o1 [Example 294] | < 400
42 | N#Cc1cccc(C2=NC(Nc3nnc(-c4ccc(F)cc4)o3)C(=O)Nc3ccccc32)c1 (stereo not shown) [Example 381] | > 800
43 | O=C1Nc2ccccc2C(c2ccccc2)=N[C@@H]1Nc1nnc(-c2nc(C3(O)CCC3)sc2N2CCOCC2)o1 [Example 455] | < 400
44 | C[C@@H]1COCCN1c1cc(C#N)cnc1-c1nnc(N[C@H]2N=C(c3ccccc3)c3ccccc3NC2=O)o1 [Example 301] | < 400
45 | COCC(C)(C)Nc1cc(C(F)(F)F)cnc1-c1nnc(N[C@H]2N=C(c3ccccc3)c3ccccc3NC2=O)o1 [Example 414] | > 800
46 | O=C1Nc2ccccc2C(c2ccccc2)=NC1Nc1nnc(-c2ccc(-n3cncn3)cc2N2CCOCC2)o1 (stereo not shown) [Example 128] | 400 to 800
47 | N#Cc1cnc(-c2nnc(NC3N=C(c4ccccc4)c4ccccc4NC3=O)o2)c(N2CCOCC2)c1 (stereo not shown) [Example 140] | < 400
48 | CCCc1nnc(NC2N=C(c3ccccc3)c3ccccc3NC2=O)o1 (stereo not shown) [Example 190] | > 800
49 | O=C1Nc2ccccc2C(c2ccccc2)=NC1Nc1nnc(-c2ccc(-n3cnnc3)cc2)o1 (stereo not shown) [Example 233] | > 800
50 | O=C1Nc2ccccc2C(c2ccccc2)=NC1Nc1nnc(-c2ccc(N3CCOCC3)cc2C(F)(F)F)o1 (stereo not shown) [Example 147] | > 800
51 | N#Cc1ccc(-c2nnc(NC3N=C(c4ccccc4)c4ccccc4NC3=O)[nH]2)cc1 (stereo not shown) [Example 365] | 400 to 800
52 | N#Cc1cnc(N2CCOCC2)c(-c2nnc(N[C@H]3N=C(c4ccccc4)c4ccccc4NC3=O)o2)c1 [Example 174] | < 400
